Laboratory results taken from patent US7892755B2, “Screening method” (Takeda Pharmaceutical Company Limited, priority 2004, dated 2011).

How the values were obtained:
[1] = tested on: control CHO-K1 cells; experiment: Changes in intracellular calcium levels on FLIPR, control CHO-K1 cells with only expression vector pAKKO-111H; type: cell-based
Description: (§1) The CHO-K1 cell line (purchased from ATCC) was incubated in HAM F-12 medium (Invitrogen) supplemented with 10% fetal calf serum, unless otherwise indicated. On the day before transfection, the cells were inoculated at 4.5×10^5/10 cm^2 and incubated at 37° C. for 15 hours or more in a CO2 incubator adjusted to 5% CO2 concentration. Using Lipofectamine reagent (Invitrogen), transfection was performed according to modifications of the procedure attached to the reagent. When a 6-well plate was used as the incubator, the transfection was performed as follows. Two tubes each having a 1.5 ml volume were prepared and 100 μl each of Opti-MEM medium (Invitrogen) was dispensed in each tube. Next, 1 μg of the GPR35 expression vector obtained in REFERENCE EXAMPLE 1 and 0.5 μg of Gα15 expression vector (Guthrie cDNA Resource Center) were incorporated into one tube and in another tube, 6 μl of Lipofectamine reagent was charged, which were then mixed together. The mixture was settled for 20 minutes at room temperature. To the solution, 800 μl of Opti-MEM medium was added and the resulting solution mixture for transfection was added to the CHO-K1 cells, which had been previously washed with Opti-MEM medium. The cells were then incubated in a CO2 incubator for 6 hours. After the incubation, the cells were rinsed with PBS (Invitrogen), then detached by 0.05% trypsin-EDTA solution (Invitrogen) and recovered by centrifugal operation. The cells obtained were counted and diluted to 5×10^4 cells per 100 μl of the medium. The dilution was dispensed to a black walled 96-well plate (Costar) at 100 μl per well, followed by incubation overnight in a CO2 incubator. Various test samples were added to the CHO-K1 cells, in which the receptor was transiently expressed, by the transfection procedure described above, whereby changes in intracellular calcium levels were assayed on a FLIPR (Molecular Device).
(§2) To assay the changes in intracellular calcium levels on FLIPR, the following pretreatment was made. First, an assay buffer was prepared to add fluorescence dye Fluo-3AM (DOJIN) to the cells, or to wash the cells immediately before the FLIPR assay. A solution was prepared by adding 20 ml of 1M HEPES (pH 7.4) (DOJIN) to 1000 ml of HBSS (Invitrogen) (hereinafter HBSS/HEPES solution). To the solution, there was added 10 ml of a solution obtained by dissolving 710 mg of Probenecid (Sigma) in 5 ml of 1N NaOH and further adding 5 ml of HBSS/HEPES solution thereto and mixing them. The resulting solution was used as an assay buffer. Next, 50 μg of Fluo-3AM was dissolved in 21 μl of DMSO (DOJIN), and an equal volume of 20% pluronic acid (Molecular Probes) was added to the solution. After mixing them, the mixture was added to 10.6 ml of an assay buffer supplemented with 105 μl of fetal calf serum to give a fluorescence dye solution. After the medium for the transfected CHO-K1 cells was removed, the fluorescence dye solution was immediately dispensed at 100 μl each per well and incubation was carried out in a CO2 incubator for an hour to take up the fluorescence dye into the cells. The incubated cells were washed with the assay buffer described above and set on FLIPR. Test samples to be added to the receptor-expressed CHO-K1 cells were prepared using the assay buffer and simultaneously set on FLIPR.
After the pretreatment described above was made, changes in intracellular calcium levels by the addition of various test samples were assayed on FLIPR. […]

[2] = biological target: T1, GPR35 (Homo sapiens, UniProt Q9HC97, S294R); experiment: Changes in intracellular calcium levels on FLIPR, CHO-K1 cells transiently co-expressing GPR35 and Gα15; type: cell-based; parameters: The resulting fragment (ca. 1 kb) was introduced into vector pAKKO-111; expressed in transfected cells; host or cells: CHO-K1 (ATCC), transient transfection; conditions: Fluo-3AM, 0.3-10 μM shown for DNQX and ellagic acid (FIG. 1, 2)
Description: as §1, §2
After the pretreatment described above was made, changes in intracellular calcium levels by the addition of various test samples were assayed on FLIPR.

[3] = tested on: GPR35-GFP fusion protein; experiment: Internalization of GPR35-GFP fusion protein expressed on CHO cells (Cellomics ArrayScan, MemCyto Above Threshold); type: cell-based, human; conditions: CHO cells stably expressing GPR35-GFP; 3 μM, 10 μM and 30 μM
Description: The CHO cell line, in which a protein wherein GFP was fused to the C-terminus of human GPR35 was stably expressed, was established using an expression plasmid for animal cells by publicly known methods. In assaying internalization of the protein, the cells at growth phase were plated at the concentration of 40000 cells/well on a 96-well plate (Packard, View-Plate™-96, Black), and cultured overnight at 37° C. under 5% CO2. First, the cells in the well were washed with assay buffer (HBSS (Gibco/BRL) supplemented with 0.1% bovine serum albumin (BSA)). Then, 100 μl each of the assay buffers containing 3 μM, 10 μM and 30 μM DNQX and NBQX was added to each well, followed by incubation at 37° C. under conditions of 5% CO2. Subsequently, 100 μl/well of a cell fixation solution (4% paraformaldehyde-containing PBS (free of Ca/Mg)) was added to the well, which was allowed to stand at room temperature for 30 minutes. The cell fixation solution was removed. […] The intracellular localization of GPR35-GFP fusion protein was assessed using MemCyto Above Threshold (cell ratio (unit %) over a specific parameter (MemCyto Intensity Ratio) representing the ratio of membrane/cytoplasmic localization of the protein to all cells in the well), which is one of the parameters of the GPCR Signaling Assay Protocol attached to the above system.

[4] = biological target: T1, GPR35; experiment: Suppression of forskolin-increased intracellular cAMP levels in human GPR35-expressed CHO cell line; type: cell-based; parameters: The resulting fragment (ca. 1 kb) was introduced into vector pAKKO-111; expressed in transfected cells; conditions: 2 μM forskolin, 37° C., 30 minutes (FIG. 3)
Description: The human GPR35-expressed CHO cells obtained in REFERENCE EXAMPLE 1 were washed with an assay buffer (HBSS (Gibco/BRL) supplemented with 0.1% bovine serum albumin and 0.2 mM isobutylmethylxanthine), followed by incubation at 37° C. for 30 minutes under conditions of 5% CO2. DNQX and NBQX were diluted with the assay buffer and the dilutions were added to the cells at respective concentrations. Thereafter forskolin was added to become 2 μM. Incubation was performed at 37° C. for 30 minutes under conditions of 5% CO2. The culture supernatant was discarded and the intracellular cAMP level was assayed on a plate reader (EnVision, Perkin Elmer) in accordance with the protocol of cAMP Screen Kit (Applied Biosystems).

T1 sequence (Q9HC97 whole entry S294R, the tested form may be a part): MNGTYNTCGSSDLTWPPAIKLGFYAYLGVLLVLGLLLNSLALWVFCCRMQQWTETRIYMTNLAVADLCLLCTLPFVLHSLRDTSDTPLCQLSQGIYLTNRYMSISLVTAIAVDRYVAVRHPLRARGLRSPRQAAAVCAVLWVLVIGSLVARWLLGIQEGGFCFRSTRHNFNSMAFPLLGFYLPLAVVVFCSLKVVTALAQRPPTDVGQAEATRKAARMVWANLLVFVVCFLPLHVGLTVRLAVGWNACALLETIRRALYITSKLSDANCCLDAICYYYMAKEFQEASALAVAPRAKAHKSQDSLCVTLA

## O=C1N=c2cc([N+](=O)[O-])c([N+](=O)[O-])cc2=NC1=O [DNQX, 6,7-dinitroquinoxaline-2,3-dione]
[1]
  response (increased intracellular calcium levels) in control cells: not observed
[2]
  response (increased intracellular calcium levels): dose-dependently responded (increased intracellular calcium levels)
[3]
  activity of inducing internalization of the GPR35-GFP protein (decreased MemCyto Above Threshold value): dose-dependent internalization
[4]
  decrease of intracellular cAMP levels increased by forskolin addition: dose-dependent and specific decrease

## NS(=O)(=O)c1cccc2c3c(cc([N+](=O)[O-])c12)=NC(=O)C(=O)N=3 [NBQX, 6-nitro-7-sulfamoylbenzo[f]quinoxaline-2,3-dione]
[1]
  response (increased intracellular calcium levels) in control cells: not observed
[2]
  response (increased intracellular calcium levels): dose-dependently responded (increased intracellular calcium levels)
[3]
  activity of inducing internalization of the GPR35-GFP protein (decreased MemCyto Above Threshold value): dose-dependent internalization
[4]
  decrease of intracellular cAMP levels increased by forskolin addition: dose-dependent and specific decrease
